Legend:
[1] = system: phosphorylated H2AX (γH2AX) in A549 cells; assay: Flow cytometry of phosphorylated H2AX, A549; assay type: cell-based, human; conditions: A549, 25 μM Pt(IV)-4C or 7.5 μM Pt(IV)-5C for 6 hours, analyzed 12 hours post treatment
Method: (§1) FIG. 9 is a series of graphs plotting Pt(IV) complex-induced phosphorylation of H2AX in A549 cells (top panels) and DU145 cells (bottom panels). A549 cells were treated with control (left), 25 μM Pt(IV)-4C (center), or 7.5 μM Pt(IV)-5C (right) for 6 hours, and analyzed 12 hours post treatment. DU145 cells were treated for 2 hours with control (left), 10 μM Pt(IV)-4C (center), or 2.5 μM Pt(IV)-5C (right), and analyzed 7 hours post treatment. Data are representative of three independent experiments.
(§2) Cells (200,000 to 250,000) were seeded in 60 mm dishes and incubated at 37° C. in a humidified, 5% CO2 atmosphere for 2 days to reach ˜50-60% confluence. The cells were treated with the platinum complexes as indicated, the floating cells were collected, and both attached and floating cells were washed 2× with PBS. The cells were resuspended in fresh medium and incubated as indicated. After incubation, both the floating and attached cells were collected and fixed by incubation in 4% formaldehyde for 10 minutes at room temperature. The fixed cells were pelleted and permeabilized by incubation in 500 μL of ice-cold methanol at 4° C. for 10 minutes. The samples were stored at −20° C. until analysis. For analysis, the cells were pelleted and washed 2× with 1% BSA in PBS. […] After washing 2× with 1% BSA, the cells were resuspended in PBS and analyzed on a Becton Dickinson FACS Calibur. […]

[2] = system: phosphorylated H2AX (γH2AX) in DU145 cells; assay: Flow cytometry of phosphorylated H2AX, DU145; assay type: cell-based, human; conditions: DU145, 10 μM Pt(IV)-4C or 2.5 μM Pt(IV)-5C for 2 hours, analyzed 7 hours post treatment
Method: as §1, §2

[3] = system: DU145 cells; assay: Annexin V/PI flow cytometry, DU145; assay type: cell-based, human; conditions: DU145, 10 μM Pt(IV)-4C or 2.5 μM Pt(IV)-5C for 1 hour, analyzed 12 hours post treatment
Method: FIG. 11 is a series of graphs showing flow cytometry analysis of Annexin V/PI staining in A549 cells (top) and DU145 cells (bottom) treated with Pt(IV)-4C and Pt(IV)-5C. A549 cells were treated for 5 hours with control (left), 25 μM Pt(IV)-4C (center), or 10 μM Pt(IV)-5C (right), and analyzed 12 hours post treatment. DU145 cells were treated for 1 hour with control (left), 10 μM Pt(IV)-4C (center), or 2.5 μM Pt(IV)-5C (right) and analyzed 12 hours post treatment. Q1=PI+, represents necrotic cells; Q2=Annexin V/PI+, representing late apoptotic/necrotic cells; Q3=Annexin V+, representing early apoptotic cells; Q4=AnnexinV/PI−, representing live cells. Data are representative of three independent experiments.
Cells (˜50 to 60% confluent in 60 mm dishes) were treated as indicated with the platinum compound. After treatment, the floating cells were collected, and both attached and floating cells were washed 2× with PBS. The cells were resuspended in fresh medium and incubated as indicated. The cells were harvested (both the floating and attached cells were collected), counted, and pelleted. The cells were then washed two times with 5 mL of Ca^2+ and Mg^2+ free PBS. The pellets were then washed in 2.0 mL of 1× Annexin-V Binding buffer (BD Bioscience, San Jose, CAS) and centrifuged at 500×g for 5 minutes. […] A quantitative measure of these event shifts was accomplished by gating. […]

[4] = system: DU145 cells; assay: Hoechst/PI staining, confocal microscopy, DU145; assay type: cell-based, human
Method: Cells (100,000 to 125,000) were seeded into 35 mm dishes and incubated for 48 hours at 37° C. The cells were treated with control, Pt(IV)-4C, or Pt(IV)-5C, and while in the dark, the cells were washed 2× with 1 mL PBS. After washing, 1 mL of a 2 μg/mL Hoechst 33342 and 10 μg/mL PI solution (in PBS) was added, and the cells were incubated for 15 minutes at room temperature. Images were acquired within 5 minutes with a Nikon A1R confocal laser scanning microscopy system (CLSM) mounted on a Nikon Eclipse Ti. At least three random areas on each dish were imaged.
Analysis of Hoechst (Ho) and PI staining by confocal microscopy also was performed to detect cell death. PI stains cells with membrane damage, whereas Ho stains both live and apoptotic cells (although apoptotic cells have more intense Ho fluorescence). […] Additionally, unlike A549, the PI positive cells in Pt(IV)-4C treated cells were higher than Pt(IV)-5C treated cells.

[5] = Solubility in water and culture medium; assay type: physicochemical; conditions: stock DMSO solution diluted in the culture medium
Method: It should be noted that while the solubility of the Pt(IV) complexes in organic solvents were increased compared to their Pt(II) precursors, they were still poorly soluble in water. Thus, Pt(IV)-1C to Pt(IV)-3C were limited to a highest concentration of 100 μM. […] Testing of Pt(IV)4C therefore was limited to 25 μM.

| Molecule | level of phosphorylated H2AX (γH2AX) [1] | level of phosphorylated H2AX (γH2AX) [2] | Annexin V/PI staining (apoptosis) [3] | Hoechst and PI staining compared to control [4] | concentration at which the complex precipitated out of solution [5] |
| --- | --- | --- | --- | --- | --- |
| CC(=O)[O][Pt]([Cl])([Cl])[O]C(C)=O.CCCCCOc1ccnc(-c2cc(OCCCCC)ccn2)c1 [Pt(IV)-5C, [Pt(IV)Cl2(OAc)2(4,4′-dipentoxy-2,2′-bipyridine)]] | increase of γH2AX | increase of γH2AX | induce apoptosis | more PI positive staining than Ho staining |  |
| [Pt(IV)Cl2(OAc)2(4,4′-dibutoxy-2,2′-bipyridine)] [Pt(IV)-4C] | increase of γH2AX | increase of γH2AX | induce apoptosis |  | ≥ 30 µM |

Source: patent publication US10316050B2, “PT (IV) complexes containing 4,4′-disubstituted-2,2′-bipyridyl and their use in cancer therapy” (THE BOARD OF REGENTS OF THE NEVADA SYSTEM OF HIGHER …, priority 2014, dated 2019)
